Measurements reported in US8673968B2, “Progesterone antagonists” (Evestra, Inc., priority 2009, dated 2014).
pIC50: −log10 of the molar value.

What was measured:
[1] = target: T1, glucocorticoid receptor-LBD (Homo sapiens, UniProt P04150); assay: Glucocorticoid Antagonist Screen activated by control agonist Dexamethasone (GENEBLAZER beta-lactamase reporter); format: cell-based; details: glucocorticoid receptor-LBD-UAS-bla HEK 293T cells, read-out: Glucocorticoid Antagonist Inhibition IC50
T1 construct: host or cells: HEK 293T (glucocorticoid receptor-LBD-UAS-bla)
T1 sequence (P04150 524-758 limits assumed): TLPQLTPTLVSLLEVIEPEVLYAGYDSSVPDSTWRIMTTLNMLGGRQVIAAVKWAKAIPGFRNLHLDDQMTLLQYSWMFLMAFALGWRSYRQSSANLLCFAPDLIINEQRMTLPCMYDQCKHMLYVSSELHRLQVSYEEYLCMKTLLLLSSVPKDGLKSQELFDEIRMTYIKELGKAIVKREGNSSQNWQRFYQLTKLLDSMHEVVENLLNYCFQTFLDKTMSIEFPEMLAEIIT
Procedure: (§1) Determination of the agonist/antagonist nature of the test compounds was carried out using Invitrogen's SELECTSCREEN, a cell-based nuclear receptor profiling service which uses GENEBLAZER a beta-lactamase reporter technology. This assay uses a Beta-lactamase cDNA under transcriptional control of an Upstream Activator Sequence (UAS). The UAS is activated by the GAL4 transcription factor DNA binding domain (DBD), which is expressed as a fusion protein with the target receptor ligand binding domain (LBD). Upon ligand binding, the GAL4(DBD)-NR(LDB) binds to the UAS, which controls transcription of Beta-lactamase. Beta-lactamase cleaves a special engineered fluorescent substrate which results in a change in the measured fluorescence wavelength.

[2] = target: T2, progesterone receptor-LBD (Homo sapiens, UniProt P06401); assay: Progesterone Agonist screen (SELECTSCREEN GENEBLAZER beta-lactamase reporter); format: cell-based; details: progesterone receptor-LBD-UAS-bla HEK 293T cells; read-out: Progesterone Agonist Activation IC50
T2 construct: host or cells: HEK 293T (progesterone receptor-LBD-UAS-bla)
T2 sequence (P06401 679-913 limits assumed): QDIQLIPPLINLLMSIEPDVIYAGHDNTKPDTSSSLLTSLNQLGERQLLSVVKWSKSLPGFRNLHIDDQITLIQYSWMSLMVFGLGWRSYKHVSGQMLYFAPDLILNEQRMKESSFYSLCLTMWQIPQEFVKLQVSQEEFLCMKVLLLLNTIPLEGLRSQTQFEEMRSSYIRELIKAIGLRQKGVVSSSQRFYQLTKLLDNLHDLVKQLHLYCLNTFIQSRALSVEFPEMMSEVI
Procedure: as §1
The plate is incubated for 16-24 hours at 37° C./5% CO2 in a humidified incubator. […] The plate is then read on a fluorescence plate reader (Tecan Safire).

[3] = target: T2, progesterone receptor-LBD; assay: Progesterone Antagonist Screen, activated by control agonist R5020 (GENEBLAZER beta-lactamase reporter); format: cell-based; details: progesterone receptor-LBD-UAS-bla HEK 293T cells; control agonist R5020 at EC80; read-out: Progesterone Antagonist Inhibition IC50
Procedure: as §1
The generalized protocol used for the Progesterone Antagonist Screen, activated by control Agonist R5020 is as follows:
32 μL of cell suspension is added to the wells which is then pre-incubated at 37 C/5% CO2 in a humidified incubator with test compounds and control antagonist titration for 30 minutes. 4 μL of a 10× control agonist (see above) at the predetermined EC80 concentration is added to wells containing the control antagonist or test compounds. The plate is incubated for 16-24 hours at 37 C/5% CO2 in a humidified incubator. 8 μl of 1 μM Substrate Loading Solution is added to each well and the plate is incubated for 2 hours at room temperature. The plate is then read on a fluorescence plate reader (Tecan Safire).

[4] = tested on: progesterone receptor positive breast cancer; details: rat model, recent study; cited from earlier work

pIC50 [3]	Structure (SMILES)	also measured
9.58	CC(=O)c1ccc(C2CC3(C)C(CCC34OCCC4=C(F)F)C3CCC4=CC(=O)CCC4=C23)cc1 (stereo not drawn) [Compound 1a, 21,21-difluoro-11β-(4′-acetyl)phenyl-17,23-epoxy-19,24-dinor-17α-chola-4,9,20-triene]	pIC50 [1]: < 8.00; pIC50 [2]: < 8.00
9.75	CN(C)c1ccc(C2CC3(C)C(CCC34OCCC4=C(F)F)C3CCC4=CC(=O)CCC4=C23)cc1 (stereo not drawn) [Compound 1b, 21,21-difluoro-11β-[4′-(dimethylamino)phenyl]-17,23-epoxy-19,24-dinor-17α-chola-4,9,20-triene]	
9.46	COc1ccc(C2CC3(C)C(CCC34OCCC4=C(F)F)C3CCC4=CC(=O)CCC4=C23)cc1 (stereo not drawn) [Compound 1c, 21,21-difluoro-11β-(4′-methoxyphenyl)-17,23-epoxy-19,24-dinor-17α-chola-4,9,20-triene]	
9.38	C=C(C)c1ccc(C2CC3(C)C(CCC34OCCC4=C(F)F)C3CCC4=CC(=O)CCC4=C23)cc1 (stereo not drawn) [Compound 1d, 21,21-difluoro-11β-(4′-isopropenylphenyl)-17,23-epoxy-19,24-dinor-17α-chola-4,9,20-triene]	

The next lines start with the compound.

Structure (SMILES)	pIC50 [3]	also measured
CC12CC(c3ccc(-c4cccnc4)cc3)C3=C4CCC(=O)C=C4CCC3C1CCC21OCCC1=C(F)F (stereo not drawn) [Compound 1e, 21,21-difluoro-11β-[4′-(3′-pyridyl)phenyl]-17,23-epoxy-19,24-dinor-17α-chola-4,9,20-triene]	9.55	
CC12CC(c3ccc(-c4ccoc4)cc3)C3=C4CCC(=O)C=C4CCC3C1CCC21OCCC1=C(F)F (stereo not shown) [Compound 1f]	9.06	
COCC(=O)[C@@]1(OC(C)=O)CC[C@H]2[C@@H]3CCC4=CC(=O)CCC4=C3[C@@H](c3ccc(N(C)C)cc3)C[C@@]21C [PROELLEX]		development of new tumors [4]: decrease in the development of new tumors; tumor size [4]: regression of tumor size
CC(=O)c1ccc([C@H]2C[C@@]3(C)[C@@H](CC[C@@]3(O)C(F)(F)C(F)(F)F)[C@@H]3CCC4=CC(=O)CCC4=C32)cc1 [ZK 230211, Lonaprisan, reference compound]	9.10	pIC50 [1]: < 8.00; pIC50 [2]: < 8.00
